Results: patent publication US11434242B2, “Dopamine-b-hydroxylase inhibitors” (BIAL-PORTELA & Cª, S.A., priority 2017, dated 2022)

Target: T1, Dopamine beta hydroxylase (Homo sapiens, UniProt P09172)
T1 construct: 125 μl of plasma; tissue Instituto Português do Sangue Transplantação; host or cells: human plasma from healthy donors
T1 sequence (P09172 40-617 limits assumed): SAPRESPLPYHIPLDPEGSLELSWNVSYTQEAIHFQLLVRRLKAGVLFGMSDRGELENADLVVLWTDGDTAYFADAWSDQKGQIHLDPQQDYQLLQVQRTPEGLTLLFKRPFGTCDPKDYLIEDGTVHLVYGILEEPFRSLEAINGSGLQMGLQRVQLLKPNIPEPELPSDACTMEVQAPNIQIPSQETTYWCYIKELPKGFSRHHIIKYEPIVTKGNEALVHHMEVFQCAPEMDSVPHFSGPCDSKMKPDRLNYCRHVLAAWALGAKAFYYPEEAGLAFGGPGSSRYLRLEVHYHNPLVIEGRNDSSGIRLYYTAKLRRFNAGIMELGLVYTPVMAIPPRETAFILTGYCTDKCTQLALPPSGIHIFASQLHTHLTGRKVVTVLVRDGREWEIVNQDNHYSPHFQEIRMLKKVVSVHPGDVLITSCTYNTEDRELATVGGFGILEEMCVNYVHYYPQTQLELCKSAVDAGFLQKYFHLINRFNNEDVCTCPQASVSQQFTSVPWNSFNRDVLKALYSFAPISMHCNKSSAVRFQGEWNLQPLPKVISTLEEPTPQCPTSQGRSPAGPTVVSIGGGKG
Assay: Dopamine beta hydroxylase activity in human plasma
Format: biochemical
Conditions: for Plasma (0.01 μM), activity in % of control: inhibitor 0.01 μM; for Plasma (0.1 μM), activity in % of control: inhibitor 0.1 μM; for Plasma (1 μM), activity in % of control: inhibitor 1 μM
Method in brief: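 Octopamine production from tyramine over 45 min at 37° C, measured photometrically at 330 nm after SCX extraction and periodate oxidation against an octopamine standard curve, indicates plasma DβH activity. Compounds tested at final 10, 100 and 1000 nM in human plasma, pH 5.0 cofactor buffer, 10 min preincubation; results as % of control.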

**Q.** What does the source list for `O=C(Cc1[nH]c(=S)n2c1C[C@H](c1c(F)c(F)cc(F)c1F)C2)NC[C@@H]1CCCO1` [Example 395, 2-((R)-6-(2,3,5,6-tetrafluorophenyl)-3-thioxo-2,5,6,7-tetrahydro-3H-pyrrolo[1,2-c]imidazol-1-yl)-N—(((S)-tetrahydrofuran-2-yl)methyl)acetamide]?
**A.** Plasma (0.01 μM), activity in % of control: 96.9 % of control; Plasma (0.1 μM), activity in % of control: 47.8 % of control

**Q.** For `Cl.O=C(Cc1[nH]c(=S)n2c1C[C@@H](c1c(F)ccc(Cl)c1F)C2)NCCN1CCC(F)(F)CC1` [Example 115, (S)-2-(6-(3-chloro-2,6-difluorophenyl)-3-thioxo-2,5,6,7-tetrahydro-3H-pyrrolo[1,2-c]imidazol-1-yl)-N-(2-(4,4-difluoropiperidin-1-yl)ethyl)acetamide Hydrochloride], which “Plasma (0.01 μM), activity in % of control” value is on record?
**A.** The value was 48.0 % of control.

**Q.** And the “Plasma (0.1 μM), activity in % of control” value?
**A.** Its value is 0 % of control.

**Q.** With `O=C(Cc1[nH]c(=S)n2c1C[C@@H](c1c(F)ccc(Cl)c1F)C2)N1CCCC1` [Example 110, (S)-2-(6-(3-chloro-2,6-difluorophenyl)-3-thioxo-2,5,6,7-tetrahydro-3H-pyrrolo[1,2-c]imidazol-1-yl)-1-(pyrrolidin-1-yl)ethan-1-one] as the compound, how does the “Plasma (0.1 μM), activity in % of control” value read?
**A.** The value was 52.4 % of control.

**Q.** What about the “Plasma (1 μM), activity in % of control” value of the same compound?
**A.** Its value is 9.7 % of control.

**Q.** Which results are given for `Cl.Cn1cc(CNCCc2c3n(c(=S)n2C)C[C@@]2(c4cc(Cl)ccc4F)C[C@@H]32)cn1` [Example 346, (5aS,6aR)-5a-(5-chloro-2-fluorophenyl)-2-methyl-1-(2-(((1-methyl-1H-pyrazol-4-yl)methyl)amino)ethyl)-5,5a,6,6a-tetrahydrocyclopropa[3,4]pyrrolo[1,2-c]imidazole-3(2H)-thione Hydrochloride]?
**A.** Plasma (0.01 μM), activity in % of control: 109.6 % of control; Plasma (0.1 μM), activity in % of control: 74.9 % of control

**Q.** `O=C(Cc1[nH]c(=S)n2c1C[C@H](c1c(F)ccc(Br)c1F)C2)N1CCCC(O)C1` (stereo partly drawn) [Example 121, 2-((R)-6-(3-bromo-2,6-difluorophenyl)-3-thioxo-2,5,6,7-tetrahydro-3H-pyrrolo[1,2-c]imidazol-1-yl)-1-(3-hydroxypiperidin-1-yl)ethan-1-one] was tested. Which “Plasma (0.01 μM), activity in % of control” value did it give?
**A.** Its value is 79.3 % of control.

**Q.** And the “Plasma (0.1 μM), activity in % of control” value?
**A.** The value was 62.6 % of control.

**Q.** For `Cn1c(CC(=O)N[C@@H]2CCCOC2)c2n(c1=S)C[C@@]1(c3cc(Cl)ccc3F)C[C@@H]21` [Example 301, 2-((5aS,6aR)-5a-(5-chloro-2-fluorophenyl)-2-methyl-3-thioxo-2,3,5,5a,6,6a-hexahydrocyclopropa[3,4]pyrrolo[1,2-c]imidazol-1-yl)-N—((R)-tetrahydro-2H-pyran-3-yl)acetamide], which “Plasma (0.01 μM), activity in % of control” value is on record?
**A.** Its value is 49.1 % of control.

**Q.** And the “Plasma (0.1 μM), activity in % of control” value?
**A.** Its value is 6.4 % of control.

**Q.** `Cn1c(CCC(=O)N2CCOCC2)c2n(c1=S)C[C@@H](c1c(F)c(F)cc(F)c1F)C2` [Example 318, (R)-3-(2-methyl-3-thioxo-6-(2,3,5,6-tetrafluorophenyl)-2,5,6,7-tetrahydro-3H-pyrrolo[1,2-c]imidazol-1-yl)-1-morpholinopropan-1-one] was tested. Which “Plasma (0.01 μM), activity in % of control” value did it give?
**A.** The value was 88.4 % of control.

**Q.** And the “Plasma (0.1 μM), activity in % of control” value?
**A.** Its value is 61.4 % of control.

**Q.** For `Cn1c(CC(=O)N2CC[C@@H](F)C2)c2n(c1=S)C[C@@H](c1c(F)ccc(F)c1F)C2` [Example 292, 1-((R)-3-fluoropyrrolidin-1-yl)-2-((R)-2-methyl-3-thioxo-6-(2,3,6-trifluorophenyl)-2,5,6,7-tetrahydro-3H-pyrrolo[1,2-c]imidazol-1-yl)ethan-1-one], which “Plasma (0.01 μM), activity in % of control” value is on record?
**A.** The value was 101.9 % of control.

**Q.** And the “Plasma (0.1 μM), activity in % of control” value?
**A.** The value was 68.3 % of control.

**Q.** With `Cn1c(C2(C(=O)NCCS(C)(=O)=O)CC2)c2n(c1=S)C[C@H](c1c(F)ccc(Br)c1F)C2` [Example 238, (S)-1-(6-(3-bromo-2,6-difluorophenyl)-2-methyl-3-thioxo-2,5,6,7-tetrahydro-3H-pyrrolo[1,2-c]imidazol-1-yl)-N-(2-(methylsulfonyl)ethyl)cyclopropane-1-carboxamide] as the compound, how does the “Plasma (0.01 μM), activity in % of control” value read?
**A.** Its value is 93.4 % of control.

**Q.** And the “Plasma (0.1 μM), activity in % of control” value?
**A.** The value was 88.5 % of control.

**Q.** Which “Plasma (0.01 μM), activity in % of control” value does the source give for `Cn1c(CC(=O)NCC2CCCO2)c2n(c1=S)C[C@@H](c1c(F)c(F)cc(F)c1F)C2` (stereo in doubt) [Example 387, 2-((R)-2-methyl-6-(2,3,5,6-tetrafluorophenyl)-3-thioxo-2,5,6,7-tetrahydro-3H-pyrrolo[1,2-c]imidazol-1-yl)-N—(((S)-tetrahydrofuran-2-yl)methyl)acetamide] here?
**A.** The value was 92.9 % of control.

**Q.** And the “Plasma (0.1 μM), activity in % of control” value?
**A.** Its value is 43.7 % of control.

**Q.** For `Cl.Cn1c(CCNC2CCCCC2)c2n(c1=S)C[C@@]1(c3cc(Br)ccc3F)C[C@@H]21` [Example 341, (5aS,6aR)-5a-(5-bromo-2-fluorophenyl)-1-(2-(cyclohexylamino)ethyl)-2-methyl-5,5a,6,6a-tetrahydrocyclopropa[3,4]pyrrolo[1,2-c]imidazole-3(2H)-thione hydrochloride], which “Plasma (0.01 μM), activity in % of control” value is on record?
**A.** Its value is 91.1 % of control.

**Q.** And the “Plasma (0.1 μM), activity in % of control” value?
**A.** The value was 33.6 % of control.

**Q.** How did the “Plasma (0.01 μM), activity in % of control” value turn out when `[2H]C([2H])([2H])n1c(CC(=O)N[C@@H]2CCCOC2)c2n(c1=S)C[C@@]1(c3cc(Br)ccc3F)C[C@@H]21` [Example 464, 2-((5aS,6aR)-5a-(5-bromo-2-fluorophenyl)-2-(methyl-d)-3-thioxo-2,3,5,5a,6,6a-hexahydrocyclopropa[3,4]pyrrolo[1,2-c]imidazol-1-yl)-N—((R)-tetrahydro-2H-pyran-3-yl)acetamide] was run?
**A.** The value was 33.4 % of control.

**Q.** And the “Plasma (0.1 μM), activity in % of control” value?
**A.** The value was 4.5 % of control.

**Q.** Which results are given for `O=C(Cc1[nH]c(=S)n2c1C[C@H](c1c(F)ccc(Br)c1F)C2)N[C@@H]1CCOC1` [Example 116, 2-((R)-6-(3-bromo-2,6-difluorophenyl)-3-thioxo-2,5,6,7-tetrahydro-3H-pyrrolo[1,2-c]imidazol-1-yl)-N—((R)-tetrahydrofuran-3-yl)acetamide]?
**A.** Plasma (0.01 μM), activity in % of control: 93.8 % of control; Plasma (0.1 μM), activity in % of control: 68.8 % of control

**Q.** How did the “Plasma (0.1 μM), activity in % of control” value turn out when `O=C(Cc1[nH]c(=S)n2c1C[C@@H](c1c(F)ccc(Br)c1F)C2)NC1CCCC1=O` (stereo partly drawn) [Example 34, 2-((S)-6-(3-bromo-2,6-difluorophenyl)-3-thioxo-3,5,6,7-tetrahydro-2H-pyrrolo[1,2-c]imidazol-1-yl)-N-(2-oxocyclopentyl)acetamide] was run?
**A.** The value was 10.4 % of control.

**Q.** What about the “Plasma (1 μM), activity in % of control” value of the same compound?
**A.** The value was 0 % of control.

**Q.** For `O=C(Cc1[nH]c(=S)n2c1C[C@@H](c1c(F)ccc(Br)c1F)C2)N1CCC2(CCOC2)C1` (stereo partly drawn) [Example 138, 2-((S)-6-(3-bromo-2,6-difluorophenyl)-3-thioxo-2,5,6,7-tetrahydro-3H-pyrrolo[1,2-c]imidazol-1-yl)-1-(2-oxa-7-azaspiro[4.4]nonan-7-yl)ethan-1-one], which “Plasma (0.01 μM), activity in % of control” value is on record?
**A.** The value was 46.6 % of control.

**Q.** What about the “Plasma (0.1 μM), activity in % of control” value of the same compound?
**A.** Its value is 5.0 % of control.
